{"source": "a melting point compilation (Tetko et al.; mined from patent text by program, amines drawn as free bases though some values may be those of a salt)"}
{"units": {"melting point": "°C"}}
{"smiles": "O=C(O)c1ccc(OCCNC(=O)C2Cc3ccccc3N2S(=O)(=O)c2ccc(-c3ccc(F)cc3)cc2)c(F)c1", "note": "(configuration not stated)", "melting point": 118}
{"smiles": "NNC(=O)Cc1cc(C(=O)c2ccc(I)c(N)c2)sc1-c1ccccc1", "melting point": "159 to 165"}
{"smiles": "NC(Cc1cc(CP(=O)(O)O)cc(-c2ccc(Cl)cc2)c1)C(=O)OCC=Cc1ccccc1", "note": "(configuration not stated)", "melting point": "253 to 255"}
{"smiles": "CSc1nc(NN)c(C#N)c(N2CCc3ccccc3CC2)n1", "melting point": "> 200"}
{"smiles": "Cc1cc(S(N)(=O)=O)n(C)n1", "melting point": "63 to 66"}
{"smiles": "c1cnn(Cc2ccc3c(c2)-c2[nH]nc(-c4ccsc4)c2C3)n1", "melting point": "217 to 219"}
{"smiles": "O=c1c2cccnc2n(-c2cccc(Cl)c2)c2cc[nH]c12", "melting point": "300 to 301"}
{"smiles": "CCc1cc(-c2ccc(Cl)cc2)nc2c(C(=O)Nc3cccc(S(C)(=O)=O)c3)cnn12", "melting point": "230 to 232"}
{"smiles": "CN(C)Cc1nc(CSCCNC(=C[N+](=O)[O-])NC2CC2)cs1", "melting point": "128 to 132"}
{"smiles": "CC(C)C(=O)N[C@@H](CSC(=O)C(C)C)C(=O)NCCSC(=O)C(C)(C)C", "melting point": "105 to 107"}
{"smiles": "CCCn1c(=O)[nH]c2c(C)ccc(OCC(O)CN3CCC(COc4ccccc4)CC3)c21", "note": "(configuration not stated)", "melting point": "91 to 93"}
{"smiles": "NC1=C(c2cccc(C(F)(F)F)c2)C(=O)OC1", "melting point": 165}
{"smiles": "COc1ccc(OC)c2c1C(=O)C=C(SCCC(=O)O)C2=O", "melting point": "208 to 209"}
{"smiles": "Cc1c(C)n(CC2CC2)c2c(CCc3ccc(F)cc3F)nncc12", "melting point": "159 to 160"}
{"smiles": "Cc1cc(-n2ccnc2)ccc1[N+](=O)[O-]", "melting point": "138 to 140"}
{"smiles": "Cc1cccc(N2CCOC2=O)c1COc1cccn2c(CO)c(C)nc12", "melting point": "190 to 193"}
{"smiles": "C=CCOc1cc(-n2c(OCC)nc(C(F)(F)F)cc2=O)c(F)cc1Br", "melting point": "68 to 70"}
{"smiles": "COc1ccnc(CCc2nc3cc(-c4ccc(S(=O)(=O)N5CCc6cc(OC)c(OC)cc6C5)cc4)cnc3[nH]2)c1", "melting point": "207 to 208"}
{"smiles": "CC(=O)N1CCC(CCC(=O)c2ccc3c4c2CCCC4CN3C(C)=O)CC1", "note": "(configuration not stated)", "melting point": "130 to 132"}
{"smiles": "O=C(O)C(Cc1ccccc1)Nc1nccc(-c2ccc(OCc3ccccc3)cc2)n1", "note": "(configuration not stated)", "melting point": 174}
{"smiles": "Cc1cc(=O)n2c3c(cc(C(O)(C(F)(F)Cl)C(F)(F)Cl)cc13)CC2", "melting point": "256 to 257"}
{"smiles": "COc1ccc(C(=C(C)P(c2ccccc2)c2ccccc2)c2ccc(OC)cc2)cc1", "melting point": "123 to 125"}
{"smiles": "O=Cc1cc(O)c(O)c(C=O)c1CCCCC(=O)O", "melting point": "148 to 152"}
{"smiles": "CC(=O)Oc1cccc2[nH]ccc12", "melting point": "97 to 98"}
{"smiles": "COc1ccc(Cn2nnc(-c3cccc(C(=O)Cl)c3)n2)cc1", "melting point": "122 to 124"}
{"smiles": "CCOC(=O)C1=CCCCC1S(=O)(=O)Nn1c(C)ccc1C", "note": "(configuration not stated)", "melting point": "96 to 97"}
{"smiles": "O=P1(c2ccccc2)CCCC1CO", "note": "(configuration not stated)", "melting point": "109 to 110"}
{"smiles": "OC1CSC(Oc2ccccn2)C(O)C1O", "note": "(configuration not stated)", "melting point": 196}
{"smiles": "CCCn1c(=O)c2c(nc(CO)n2C)n(CCC)c1=O", "melting point": "111 to 112"}
{"smiles": "Cc1ccc(C)c(CN(c2ncnc3c2cnn3C2CCCO2)C2CCCC2)c1", "note": "(configuration not stated)", "melting point": "173 to 174"}
{"smiles": "CCOC(=O)c1cnc2cc(Cl)ccc2c1N=[N+]=[N-]", "melting point": 94.5}
{"smiles": "O=C(O)c1cccc2ccoc12", "melting point": "159 to 161"}
{"smiles": "CC(=O)Nc1ccc(Oc2c(NCc3ccco3)cc(C(=O)O)cc2S(=O)(=O)NC(C)=O)cc1", "melting point": 250}
{"smiles": "CCOc1ccc(N(C)CCCN)cc1", "melting point": "97 to 98"}
{"smiles": "CCOC(=O)c1c(Nc2cc(F)ccc2[N+](=O)[O-])sc2cc(C)ccc12", "melting point": "147 to 149"}
{"smiles": "N#CCCN1CCN(c2cc3cccnc3c(-c3cccc(C#N)c3)n2)CC1", "melting point": "> 200"}
{"smiles": "O=C(N1CCCC1)n1c(CN2CCN(c3ccccn3)CC2)nc2ccccc21", "melting point": "120 to 121"}
{"smiles": "CSc1sc(-c2ccn(C)n2)c2c1C(=O)C(=CO)C(C)(C)C2", "melting point": "145 to 148"}
{"smiles": "c1ccc(-c2ncnn2-c2ccccc2)cc1", "melting point": "85 to 87"}
{"smiles": "c1ccc(COc2ccc(-n3nnnc3C3CC3)cc2)cc1", "melting point": 118}
{"smiles": "O=[N+]([O-])c1ccc2c(c1)CCC(CO)O2", "note": "(configuration not stated)", "melting point": 96.5}
{"smiles": "CS(=O)(=O)c1ccc(-c2sc(Nc3cc(Cl)cc(Cl)c3)nc2-c2ccc(F)cc2)cc1", "melting point": "287 to 288"}
{"smiles": "NC(=NO)c1ncn2c1COC(=O)c1c(Cl)cccc1-2", "melting point": "252 to 254"}
{"smiles": "CC(=NO)c1nn(C)c2cc(OCC3CC3(Cl)Cl)c(F)cc12", "note": "(configuration not stated)", "melting point": "150 to 152"}
{"smiles": "Nc1ncccc1-c1nc2cc(-c3ccc(C(=O)O)o3)cnc2n1-c1ccc(CNC(=O)c2ccccc2)cc1", "melting point": "211 to 217"}
{"smiles": "COC(=O)CCc1conc1-c1ccc(Cl)c(Cl)c1", "melting point": "87 to 88"}
{"smiles": "NCCCNc1ccc(Cl)nn1", "melting point": 125}
{"smiles": "OCc1cccc(Cc2c[nH]cn2)c1O", "melting point": "152 to 155"}
{"smiles": "CN(C)CCCn1cc(-c2ccccc2)sc1=Nc1ccccc1", "melting point": "84 to 86"}
{"smiles": "NC1CCCn2c1nc(-c1ccncc1)cc2=O", "note": "(racemic)", "melting point": "144 to 146"}
{"smiles": "Cc1csc2[nH]c(=O)n(Cc3ccc(Br)cc3F)c(=O)c12", "melting point": "296 to 298"}
{"smiles": "Fc1ccc2cc(C3=CCNCC3)sc2c1", "melting point": "155 to 157"}
{"smiles": "COC1=CC(=O)c2c(cc(Br)c(O)c2Br)C1=O", "melting point": "224 to 228"}
{"smiles": "COC(=O)c1ccc(N)cc1C(=O)OC", "melting point": "83 to 85"}
{"smiles": "CCOC(=O)c1cccc(-c2nc(-c3cc(Cl)sc3Cl)cs2)c1", "melting point": "125 to 126"}
{"smiles": "CCCS(=O)(=O)Oc1c(C(=O)c2ccc3c(c2C)C(SCC)CCS3(=O)=O)cnn1CC", "note": "(configuration not stated)", "melting point": "140 to 145"}
{"smiles": "COc1ccc(OC2CCN(C)C2)c(C(N)=O)c1", "note": "(configuration not stated)", "melting point": "85 to 87"}
{"smiles": "CC1(C)OC(=S)Nc2ccc(-c3ccccc3Cl)cc21", "melting point": "171 to 172"}
{"smiles": "CCOC(=O)c1cc2n(c1)C(C)N(C(=O)OCC)c1ccccc1-2", "note": "(configuration not stated)", "melting point": "125 to 127"}
{"smiles": "CCOC(=O)C1=C2Nc3ccccc3N2CC1", "melting point": "269 to 271"}
{"smiles": "CC1CCC(C(C)C)C(OC(=O)N2CC(=O)N(C)c3ccc(Cl)cc3C2c2ccccc2)C1", "note": "(configuration not stated)", "melting point": 144}
{"smiles": "CCC[C@H](Oc1cc(C)c(-n2cc(C(F)(F)F)cn2)c(C)c1)c1ccc(C(=O)NCCC(=O)O)cc1", "melting point": "157 to 159"}
{"smiles": "Cc1cc(NC(=O)c2cc(F)cc(N(C3CN(C(c4ccc(Cl)cc4)c4ccc(Cl)cc4)C3)S(C)(=O)=O)c2)no1", "melting point": "222 to 224"}
{"smiles": "Cn1ncnc1COc1nn2c(-c3ccccc3F)nnc2cc1C12CCC(C1)C2", "melting point": "198 to 200"}
{"smiles": "COCCOc1cc(N(C)S(=O)(=O)c2ccccn2)c2[nH]c(C3=NCC(CC(=O)O)S3)cc2c1", "note": "(configuration not stated)", "melting point": "107 to 109"}
{"smiles": "O=C(O)CCCOc1cccc2occc12", "melting point": "91 to 93"}
{"smiles": "Nc1ncccc1C(=O)NCC1CCN(C[C@H]2COc3ccc(Br)cc3O2)CC1", "melting point": "158 to 160"}
{"smiles": "CCCC12CCC3=C(CCc4cc(OC)ccc43)C1CCC21OCCO1", "note": "(configuration not stated)", "melting point": "119 to 120"}
{"smiles": "C#CCSc1nc(-c2ccccc2)no1", "melting point": 39.4}
{"smiles": "COc1ccccc1NC(=O)c1ccc(CN2CCOCC2)cc1", "melting point": "90 to 93.5"}
{"smiles": "CCCCN(C)CCc1ccc(Nc2ncc3c(n2)-c2ccccc2C(c2cccc(Br)c2)C3)cc1", "note": "(configuration not stated)", "melting point": "66 to 68"}
{"smiles": "CCCn1c(=O)n(CCC)c2cc3c(N4CCN(C(=O)Nc5ccc(Oc6ccccc6)cc5)CC4)ncnc3cc21", "melting point": "179 to 180"}
{"smiles": "CC(C)n1cc(-c2nc(C(N)=O)c(N)nc2-c2ccc(C#N)cc2)ccc1=O", "melting point": 292}
{"smiles": "O=C1CCC(c2ccc(N=C(CCc3ccccc3)c3ccc(O)cc3O)cc2)=NN1", "melting point": "208 to 210"}
{"smiles": "N#Cc1c(Cl)cncc1Cl", "melting point": "117 to 118"}
{"smiles": "CN(c1cc2c3c(c1)CCCC3CCC2)c1ncc(C(=O)O)cn1", "melting point": "255 to 256"}
{"smiles": "Cc1ccc(C(=O)[C@H]2C[C@H]2C(=O)O)cc1", "note": "(relative stereo)", "melting point": "165 to 166"}
{"smiles": "O=C(O)CC1(c2cccc(Cl)c2)CNC(=O)C1", "note": "(configuration not stated)", "melting point": "178 to 181"}
{"smiles": "N#Cc1ccc(N(Cc2ccc(OS(N)(=O)=O)cc2)n2cnnc2)cc1-c1ccco1", "melting point": "177 to 178"}
{"smiles": "CCOC(=O)CNC(=O)C(=O)NCC(OC)OC", "melting point": "63 to 65"}
{"smiles": "CNC(=O)Oc1ccc2c(c1)c1c(n2C)C2(CC1)CCN(Cc1ccccc1)CC2", "melting point": "189 to 190"}
{"smiles": "Cc1cccc2c1N(CC(=O)N1CC3CCC(CC3)C1)C(=O)C(NC(=O)Nc1cccc(O)c1)N=C2c1ccccc1F", "note": "(configuration not stated)", "melting point": "193 to 204"}
{"smiles": "CC(=Cc1ccccc1)c1ccc2c(c1)S(=O)(=O)CCC2(C)C", "melting point": "148 to 150"}
{"smiles": "Cc1cccc(C)c1N1C(=O)C(=O)N(C)C1=S", "melting point": "144 to 146"}
{"smiles": "COC(=O)[C@H](CO)NC(=O)[C@@H]1CCCN1C(=O)OCc1ccccc1", "melting point": "97 to 100"}
{"smiles": "CN1CC2Cc3ccc(Cl)cc3C(=O)C2C1", "note": "(configuration not stated)", "melting point": "148 to 150"}
{"smiles": "O=C(O)Cc1ccc2c(c1)C(=O)c1cc(Cl)ccc1CS2", "melting point": "187 to 189"}
{"smiles": "COC(=O)c1c(C)nc(C)c(C(=O)OCC2CCCO2)c1-c1ccccc1[N+](=O)[O-]", "note": "(configuration not stated)", "melting point": "69 to 70"}
{"smiles": "Cc1cccc(OCCF)c1S(N)(=O)=O", "melting point": 103}
{"smiles": "C=CC(O)c1ccc2ccccc2c1", "note": "(configuration not stated)", "melting point": "30 to 32"}
{"smiles": "CC1(C)SC(c2cc3ccccc3o2)NC1C(=O)O", "note": "(configuration not stated)", "melting point": 96}
{"smiles": "COc1ccc2c(c1)CCC1=C2CCC2(C)C(=O)CC=C12", "note": "(configuration not stated)", "melting point": "111 to 113"}
{"smiles": "N=C(Nc1ccc(CCCC(=O)Nc2ccccc2)cc1)N1CCCC1", "melting point": "164 to 165"}
{"smiles": "N#Cc1nc(-c2cnn(-c3ccc(C(F)(F)F)cc3[N+](=O)[O-])c2Br)[nH]c1C#N", "melting point": "86 to 90"}
{"smiles": "Cc1cc(C)cc(Nn2cnc(C)c2-c2ccccc2)c1", "melting point": "154 to 156"}
{"smiles": "COc1cccc(Cn2c(C)c(CC(=O)O)c3cc(OCc4csc(-c5ccccc5)n4)ccc32)c1", "melting point": "162 to 163"}
{"smiles": "COc1nc(NC(=O)NS(=O)(=O)c2c(C)cccc2OC)nc(OC)n1", "melting point": 163}
{"smiles": "CCN1C(=O)OC(C)(C)c2cc(-c3cc(F)cc(C#N)c3)ccc21", "melting point": "154 to 155"}
{"smiles": "CCNC(=O)c1ccc(N2CCN(Cc3cnc4c(c3)[nH]c(=O)n3cccc43)CC2)cc1", "melting point": "252 to 260"}
{"smiles": "CCCN(CCC)c1c([N+](=O)[O-])cc(C2OCCS2)cc1[N+](=O)[O-]", "note": "(configuration not stated)", "melting point": "111 to 112"}
{"smiles": "O=C(NCc1ccc(Cl)cc1)c1cn(CCN2CCOCC2)c2ccc(C#CCO)cc2c1=O", "melting point": "215 to 218"}
{"smiles": "CCOC(=O)c1cc2cc(NC(=O)OC(C)(C)C)ccc2[nH]1", "melting point": "190 to 192"}
